Measured values published in patent EP0373658A2, “Use of quinoline derivatives in treating cancer” (priority 1988, dated 1990).

Experiments:
serum prolactin = assay: lowering basal serum prolactin levels in the male rat (prolactin secretion inhibition); format: in vivo
From the text: Many of the above mentioned compounds are published as prolactin secretion inhibitors, some of which are extremely potent and have long lasting activity. The potency of the compounds as prolactin secretion inhibitors can be determined in standard tests, e.g. by lowering basal serum prolactin levels in the male rat.

[1] = 52 week toxicology studies in rats; format: in vivo; settings: oral doses, 0.20 mg/kg/day
operable breast cancer = assay: Clinical trial II: antiproliferative effect in operable breast cancer; format: in vivo, women; settings: oral, 20 days, 50 to 200 ug/day/p.o.; compound A 25 µg/day days 0 to 3, 50 µg/day days 4 to 6, 75 µg/day until day 20
From the text: 24 to 36 women with operable breast cancer, aged less than 70 years, in whom a positive biopsy cut has been obtained at the first clinic visit are selected. The patients are not be taking any chronic medication which is known to influence serum prolactin levels. The trial is effected on a randomized double blind basis. All patients are to have baseline evaluations before beginning treatment.
The women are given an oral dose of a COMPOUND OF THE INVEN-TION or placebo for 20 days, starting on day 0. They are operated on day 10 with either breast conservation or modified radical mastectomy. Prolactin levels in plasma are measured on days 0, 6, 10, 13 and 20. Histological evaluations are performed on days 1 and 10.

[2] = test system: 5-HT sensitive adenylate cyclase of the liver fluke; assay: activation of 5-HT sensitive adenylate cyclase of the liver fluke (method of R. Markstein); format: biochemical; settings: adenylate cyclase stimulated by serotonin
From the text: A group of compounds comprises compounds which are D₂ agonists without any antagonistic activity. Another group of compounds includes those compounds which are serotonin agonists, e.g. as indicated in standard in vitro binding tests and by activation of 5-HT sensitive adenylate cyclase of the liver fluke according to the method of R.Markstein, Neurochemical Effects of Some Ergot Derivatives: A Basis for their Antiparkinson Actions. J. Neural transm 51:39, (1981).
Examples of such compounds include compound C and pergolide. Compound C, pergolide and 5-HT agonists have efficacies of 90, 80, and 100 respectively and pD₂ [10g EC₅₀] of 6.9, 6.9 and 7.7 respectively in this test on adenylate cyclase stimulated by serotonin.

CN1C[C@@H](NS(=O)(=O)N(C)C)C[C@@H]2c3cccc4c3c(cn4C)C[C@H]21 [B, 1,6-dimethyl-8α-(N,N-dimethylsulphamoylamino)-ergoline-I]
ID₅₀ mg/kg after 4 hours (serum prolactin): 0.003 mg/kg

CCCN1CC(NS(=O)(=O)N(CC)CC)CC2Cc3c(O)cccc3CC21 (stereo not drawn) [Compound A, N,N-diethyl-N′-[(3α,4aα,10aβ)-1,2,3,4,4a,5,10,10a-octahydro-6-hydroxy-1-propyl-3-benzo[g]-quinolinyl] sulfamide]
toxic effects [1]: no toxic effects are observed | ID₅₀ mg/kg after 4 hours (serum prolactin): 0.03 mg/kg | mitotic rate (operable breast cancer): satisfactory results indicative of a reduced mitotic rate

CCCN1C[C@@H](NS(=O)(=O)N(CC)CC)C[C@@H]2c3cccc4[nH]cc(c34)C[C@H]21 [Compound C, 6-n-propyl-8α-(N,N-diethylsulphamoylamino)-ergoline-I]
ID₅₀ mg/kg after 4 hours (serum prolactin): 0.001 mg/kg | efficacies [2]: 90 | pD₂ [10g EC₅₀] [2]: 6.9

CCCN1C[C@H](CSC)C[C@@H]2c3cccc4[nH]cc(c34)C[C@H]21 [pergolide, 6-n-propyl-8α-methylmercaptomethyl-ergoline-I, reference compound]
efficacies [2]: 80 | pD₂ [10g EC₅₀] [2]: 6.9
